Consider 15 molecules from article PMC3857224, “Inhibition of DNA Glycosylases via Small Molecule Purine Analogs” (PLoS ONE, 2013).

pIC50: −log10 of the molar value.

As a reminder, the pIC50 is the IC50 on a negative log10 scale, so that one unit is a factor of ten. Read a low pIC50 as a high IC50.

The test system of one series is NEIL1-depleted cells. On the set-up: method as in PMID 21131780. The note with it: minimally toxic doses, siRNA NEIL1 depletion; cited from earlier work.
Series [1] addresses T1, NEIL1 (Homo sapiens, UniProt Q96FI4).
T1 construct: made in house
The series is described as follows: qHTS fluorogenic glycosylase/AP lyase assay, 1536-well, Sp/Gh substrate. The format is biochemical. The conditions noted are these: 5 concentrations. Here is the method:
The fluorogenic assay was miniaturized to 4 µL in 1536-well black solid plates by optimization of the enzyme and Sp/Gh substrate concentrations. Briefly, 3 µL of 25 nM NEIL1 were dispensed into each well of a 1536-well plate (except buffer in columns 3 and 4 as a negative control). Compounds (DMSO solutions) and control (DMSO only) (23 nL) were transferred to the plate via Kalypsys pintool. The plate was incubated for 15 min at room temperature, and then 1 µL of the Sp/Gh-containing DNA substrate (75 nM final concentration) was added to start the reaction. The plate was immediately transferred into the ViewLux reader for the kinetic fluorescence read. Initial rate data were normalized against uninhibited and no-enzyme controls and the resulting percent activities as a function of compound concentration were fitted using the Hill equation.
Having established the general principle for a glycosylase screening assay, further assay development was undertaken to enable HTS in which the reaction volumes were reduced by 5-fold to a total of 4 µL. Initially, the library of pharmacologically active compounds (LOPAC^1280) was screened for inhibitors of NEIL1 as a determination of the feasibility of this high-throughput method. […] All compounds were screened at 5 different concentrations that allowed for the initial estimation of inhibitory potency (IC50) values, as well as an evaluation of the shape of the response curves. In addition to the anticipated inhibitors (known DNA intercalators, such as ellipticine (IC50 = 2 µM)) and other small molecules that have been previously established to be promiscuous inhibitors (such as aurintricarboxylic acid (IC50<1 µM)), one interesting hit from this screen was CGP-74514A (NCGC ID is NCGC00015229) (Figure 5A). CGP-74514A is a known small molecule inhibitor of Cdk1 in which the structure of this molecule is based on a purine ring backbone.

The target of series [2] is T1, NEIL1. The series is described as follows: gel-based incision assay of oligodeoxynucleotides containing site-specific base lesions. The format is biochemical. The conditions noted are these: polyacrylamide gel, reaction quenched at 20 min. How it is done:
The 384-well fluorogenic assay was carried out in a 20 µL reaction mixture in 20 mM Tris-HCl pH 8.0, 100 mM KCl, and 0.1% BSA, with 5 nM active enzyme and 50 nM substrate. Possible inhibitors were incubated with the enzyme for at least 5 min at room temperature in a black, low-volume 384-well plate before addition of an equal volume of substrate to start the reaction. The plates were spun for 30 s at 1000 rcf to remove bubbles. The reactions were incubated at 37°C and fluorescence data collected on an Infinite M200 (Tecan, Mannedorf, Switzerland) equipped with standard optics (excitation filter 525 nm, and emission filter 598 nm). For the gel-based assay, reactions were initiated as described for the fluorogenic assay, but quenched with 20 µL 95% formamide at 20 min. The products were separated by electrophoresis through a 15% polyacrylamide gel containing 8 M urea and visualized by a Typhoon scanner (GE Life Sciences, Piscataway, NJ). The fraction of cleaved product was measured using ImageQuant software and analyzed using GraphPad Prism 6. […]

The target of series [3] is T1, NEIL1. The series is described as follows: NEIL1 excision of FapyAde and FapyGua from γ-irradiated calf thymus DNA by GC-MS/MS. The format is biochemical. The conditions noted are these: 10 µL of 2 mM inhibitor in DMSO, 1 h 37°C. How it is done:
The enzymatic activity of NEIL1 was measured using gas chromatography/isotope-dilution tandem mass spectrometry (GC-MS/MS) and calf thymus DNA samples γ-irradiated at 20 Gy as described, [30]. Aliquots of FapyAde-^13C,^15N2 and FapyGua-^13C,^15N2 were added as internal standards to 50 µg of DNA samples. After drying in a SpeedVac, DNA samples were dissolved in 50 µL of an incubation buffer consisting of 50 mM phosphate buffer (pH 7.4), 100 mM KCl, 1 mM EDTA, and 0.1 mM dithiothreitol, and then incubated with 2 µg NEIL1 for 1 h at 37°C without any inhibitor, DMSO alone, or with 10 µL of an inhibitor solution in DMSO (2 mM). After incubation, 150 µL of cold ethanol was added. The samples were kept at −20°C for 1 h and then centrifuged with 14,000 g for 30 min at 4°C. The supernatant fractions were separated and ethanol removed in a SpeedVac under vacuum. The samples were then frozen in liquid nitrogen and lyophilized overnight. To fully remove DMSO that would interfere with GC-MS/MS analysis, 500 µL water were added to the samples followed by lyophilization overnight. This procedure was repeated twice. Dried samples were derivatized and analyzed by GC-MS/MS as described, [30]. For each data point, three independently prepared samples were used.
Although Gh and Sp are excellent substrates for NEIL1, these are likely not to be the biologically relevant substrates. Thus, to determine if the compounds that were identified above were effective in the inhibition of NEIL1 against its biologically relevant substrates FapyAde and FapyGua, [6], γ-irradiated calf thymus DNA was used as a substrate. The excision by NEIL1 of these substrates from DNA was measured by GC-MS/MS with isotope-dilution. Figure 8 illustrates the excision of FapyAde and FapyGua by NEIL1 from γ-irradiated calf thymus DNA in the absence or presence of inhibitors. […] Some inhibition by DMSO alone was also observed when compared with excision by NEIL1 alone (p = 0.01). However, when compared to DMSO, the inhibitions by P2, P6, P7 and P8 were highly significant (p<0.005). […] A p-value<0.05 was assumed to correspond to statistical significance.

The subject of the next series is duplex DNA ladder. Nature of the series: DNA ladder gel-shift intercalation assay. The format is binding. The conditions noted are these: 40 µM compound, 20 min room temperature. Here is the method: To test whether potential inhibitors could exert their inhibitory effect via DNA intercalation, 10 µL reactions containing 500 ng of a 100-bp DNA ladder were incubated at room temperature for 20 min with 40 µM of the selected compound. Ellipticine, a compound that is known to intercalate into duplex DNA was used as a control compound at a final concentration of 40 µM. Samples were resolved on a 1% agarose gel in 0.5X Tris-borate EDTA running buffer at 120 V for 2 h. Shifts in gel mobility were visualized by post staining with ethidium bromide and images were captured on a ChemiImager 5500 (Protein Simple, Santa Clara, CA).
To assay whether these inhibitors could block NEIL1 activity through DNA intercalation, a DNA ladder gel-shift assay was performed, with ellipticine serving as a positive control. A duplex DNA ladder was incubated with each inhibitor, and analyzed for electrophoretic mobility shift.

T1 sequence (Q96FI4 whole entry): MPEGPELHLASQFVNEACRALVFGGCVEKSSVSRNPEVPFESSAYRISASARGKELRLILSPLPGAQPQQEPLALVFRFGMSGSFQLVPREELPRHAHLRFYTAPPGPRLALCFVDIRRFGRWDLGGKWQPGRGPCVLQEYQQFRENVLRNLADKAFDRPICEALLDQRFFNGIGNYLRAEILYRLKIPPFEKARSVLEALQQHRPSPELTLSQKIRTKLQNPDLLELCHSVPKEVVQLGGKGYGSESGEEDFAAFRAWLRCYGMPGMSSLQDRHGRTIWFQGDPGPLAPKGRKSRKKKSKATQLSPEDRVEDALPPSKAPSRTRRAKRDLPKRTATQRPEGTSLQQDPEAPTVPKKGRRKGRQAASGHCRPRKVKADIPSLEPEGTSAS

Turning to `Nc1nc(N)c2nc(CNc3ccc(C(=O)N[C@@H](CCC(=O)O)C(=O)O)cc3)cnc2n1` [AMT, aminopterin], the “increased cytotoxicity in NEIL1-depleted cells” value (from here on “increased cytotoxicity”) with NEIL1-depleted cells was 7 fold.

In the case of `O=C(C1CCN(c2ncnc3c2nc2n3CCCCC2)CC1)N1CCN(c2cccc(Cl)c2)CC1` [Purine P19], the negative logarithm of the IC50 (pIC50) against NEIL1 [1] was 4.70; at NEIL1 [2], below 4.70. Besides, the “inhibition of NEIL1 excision of FapyAde and FapyGua” value against NEIL1 [3] is listed as “no inhibition”. Regarding `CN(Cc1cnc2nc(N)nc(N)c2n1)c1ccc(C(=O)N[C@@H](CCC(=O)O)C(=O)O)cc1` [MTX, methotrexate], the “increased cytotoxicity” value with NEIL1-depleted cells is on record as 10 fold. With `Cc1ccc2nc(N)[nH]c(=O)c2c1Sc1ccncc1` [NOL, nolatrexed], in the series on NEIL1-depleted cells, the “increased cytotoxicity” value is 5 fold. In the case of `Cc1c2ccncc2c(C)c2c1[nH]c1ccccc12` [ellipticine, reference compound], the pIC50 at NEIL1 [1] is 5.70. The “shift in electrophoretic mobility of DNA ladder (intercalation)” value with duplex DNA ladder is “major reduction in the electrophoretic mobility”. Turning to `Cc1cc(/C=C/C#N)cc(C)c1Nc1nc(Nc2ccc3n[nH]nc3c2)c2[nH]cnc2n1` [Purine P18], the results for the pIC50 on NEIL1 [1] and at NEIL1 [2] were 4.75 and below 4.30, respectively. For `c1ccc(COc2ccc(Nc3ncnc4nc[nH]c34)cc2)cc1` [Purine P26], in that order: 4.50 and below 4.70. Taken in the same sequence, the figures for `CC(=O)c1ccc(N2CCN(C(=O)C3CCCN(c4ncnc5c4nc4n5CCCCC4)C3)CC2)cc1` (stereo not drawn) [Purine P27] were 6.22 and below 4.30. Turning to `Cc1nc2ccc(CN(C)c3ccc(C(=O)N[C@@H](CCC(=O)O)C(=O)O)s3)cc2c(=O)[nH]1` [RTX, raltitrexed], in the series with NEIL1-depleted cells, the “increased cytotoxicity” value is listed as 9 fold. Turning to `Nc1nc(N)c2[nH]c(-c3ccccc3)nc2n1` [Purine P36], the pIC50 was 4.81 against NEIL1 [1] and below 4.30 against NEIL1 [2].

In the case of `O=C(C1CCCN(c2ncnc3c2nc2n3CCCCC2)C1)N1CCN(c2ccc(F)cc2)CC1` (stereo not drawn) [Purine P41], the pIC50 against NEIL1 [1] is 6.10; on NEIL1 [2], below 4.30.

Turning to `Nc1ncnc2c1ncn2[C@@H]1O[C@H](CNCc2cccc(C#Cc3ccccc3)c2)[C@@H](O)[C@H]1O` [Purine P14], the pIC50 at NEIL1 [1] was 4.90; at NEIL1 [2], below 4.30. For `COc1cccc(-c2cc(CNC(=O)[C@H]3O[C@@H](n4cnc5c(N)ncnc54)[C@H](O)[C@@H]3O)no2)c1` [Purine P34], in that order: 5.00 and below 4.30. For `CC(C)n1cnc2c(N(C)c3ccccc3)nc(N(CCN(C)C)Cc3ccccc3)nc21` [Purine P13], in that order: 4.90 and below 4.30. For `COc1ccc(CNc2nc(NCc3ccc(OC)cc3)c3[nH]cnc3n2)cc1` [Purine P40], in that order: 6.22 and below 4.30.
